From the SangsterLogP compilation come the findings set out here.

Molecules are shown by their SMILES.

Broadly, the logP is the decadic logarithm of the partition coefficient of the neutral form, usually between octanol and water. Molecule `CCOP(=S)(OCC)Oc1nc(Cl)n(C(C)C)n1` showed a logP of 2.99.

The molecule `O=C(NC(=O)c1ccccc1Cl)Nc1ccc(OC(F)(F)F)cc1` came in with a logP of 4.91.

In turn, `CON(C)C(=O)Nc1ccc(Br)cc1` gave a logP of 2.41.

`CC(Oc1ccc(Oc2ncc(Cl)cc2Cl)cc1)C(=O)N1CCCO1` (stereo not given) displayed a logP of 3.36.

`CC1(C)CON(Cc2ccccc2Cl)C1=O` displayed a logP of 2.5.

In turn, `CCN(CC)C(=O)C(C)Oc1cccc2ccccc12` (stereo not given) came in with a log partition coefficient (logP) of 3.3.

Molecule `C#CCOS(=O)OC1CCCCC1Oc1ccc(C(C)(C)C)cc1` (stereo not given) had a logP of 3.73.

`CCOP(=S)(OCC)Oc1ccc(=O)n(-c2ccccc2)n1` registered a logP of 3.2.

`COC(C)(C)CCCC(C)C/C=C/C(C)=C/C(=O)OC(C)C` (stereo not given) had a lipophilicity (logP) of 5.21.

In turn, `O=C1c2ccccc2C(=O)N1SC(Cl)(Cl)Cl` gave a logP of 3.11.

Turning to `CCN(CC)C(=O)SCc1ccccc1Cl`, the logP was found to be 3.43.

As to `CC1(C)C(C=C(Cl)Cl)C1C(=O)OC(C#N)c1ccc(F)c(Oc2ccccc2)c1` (stereo not given), the log partition coefficient (logP) came to 5.93.

The molecule `CCOCN(C(=O)CCl)c1c(C)cccc1CC` showed a lipophilicity (logP) of 3.03.

`C=CCNC(=O)CN(CC=C)C(=O)C(Cl)Cl` gave a log partition coefficient (logP) of 1.

Take `CC(C)NC(=O)N1CC(=O)N(c2cc(Cl)cc(Cl)c2)C1=O`: the logP came to 3.

Regarding `CN(C)C(=O)Nc1ccc(Cl)c(Cl)c1`, the logP is 2.85.

In turn, `CCOC(=O)[C@@H](C)Oc1ccc(Oc2nc3ccc(Cl)cc3o2)cc1` showed a logP of 4.58.

Molecule `CCCCOC(=O)[C@@H](C)Oc1ccc(Oc2ccc(C(F)(F)F)cn2)cc1` registered a logP of 4.5.

`CCSCc1ccccc1OC(=O)NC` yielded a logP of 2.04.

As to `C=CCN(CC=C)C(=O)C(Cl)Cl`, the logP stood at 1.84.

For the molecule `CC(C)C1CCC(Cc2ccc(Cl)cc2)C1(O)Cn1cncn1` (stereo not given), the logP is 4.21.

`CCOC(=O)C(Cl)Cc1cc(-n2nc(C)n(C(F)F)c2=O)c(F)cc1Cl` (stereo not given) gave a logP of 3.36.

`C/C=C\COCN(C(=O)CCl)c1c(CC)cccc1CC` showed a logP of 3.51. This logP and that of the molecule before are within 0.2 log units of each other.

With `CC(C)N1C(=O)N(c2ccccc2)CS/C1=N\C(C)(C)C`, the log partition coefficient (logP) came out at 4.3.

`CCCCOC(=O)N(C)SN(C)C(=O)Oc1cccc2c1OC(C)(C)C2` registered a logP of 4.6.

`CCCCC(CC)CN1C(=O)C2C3C=CC(C3)C2C1=O` (stereo not given) registered a log partition coefficient (logP) of 3.7.

`CCNc1nc(Cl)nc(NCC)n1` showed a logP of 2.1.

Turning to `O=S(=O)(c1ccc(Cl)cc1)c1cc(Cl)c(Cl)cc1Cl`, the logP was 4.61.

Consider `CCCCCOC(=O)COc1cc(N2C(=O)C3=C(CCCC3)C2=O)c(F)cc1Cl`, for which the logP was determined as 4.99.

Regarding `CC(C)c1cc(Oc2ccccc2)cc(C(C)C)c1NC(=S)NC(C)(C)C`, the logP was found to be 5.76.

The molecule `CCCOC(=O)c1ccc(C(=O)OCCC)nc1` had a logP of 3.57.

`COCC(C)N(C(=O)CCl)c1c(C)csc1C` (stereo not given) came in with a logP of 2.15.

Molecule `COP(=S)(OC)Oc1ccc(Sc2ccc(OP(=S)(OC)OC)cc2)cc1` registered a logP of 4.91.

As for `CCCSP(=O)(OCC)Oc1ccc(Br)cc1Cl` (stereo not given), the logP was determined as 4.44.

The molecule `COP(=O)(OC)OC1=C(Cl)C2C=CCC12` (stereo not given) yielded a logP of 2.32.

For `Cl/C=C\CCl`, the logP was found to be 2.06.

Regarding `CN(C)C(=O)Nc1cc(C(C)(C)C)on1`, the logP stood at 1.98.

For the molecule `CC(C)=CC1C(C(=O)OCN2C(=O)C3=C(CCCC3)C2=O)C1(C)C` (stereo not given), the logP is 4.49.

Molecule `CNC(=O)ON=C(C)C(C)SC` (stereo not given) showed a logP of 1.11.

For the molecule `CC(C)=CC1C(C(=O)OCc2coc(Cc3ccccc3)c2)C1(C)C` (stereo not given), the logP came to 5.4.

`OC1(c2ccc(Cl)cc2)CCCCCC1n1cncn1` (stereo not given) yielded a logP of 3.02.

Turning to `COc1ccc(/C(=C\C(=O)N2CCOCC2)c2ccc(Cl)cc2)cc1OC`, the logP worked out at 2.73.

On to `O=CNC(N1CCN(C(NC=O)C(Cl)(Cl)Cl)CC1)C(Cl)(Cl)Cl` (stereo not given), for which the log partition coefficient (logP) was determined as 2.2.

For `O=C1C(Cl)=C(Cl)C(=O)N1c1ccc(F)cc1`, the logP turned out to be 2.3.

Consider `CC(C)OC(=O)C(O)(c1ccc(Br)cc1)c1ccc(Br)cc1`, for which the logP is 5.4.
